Like-named read-outs stand apart in the source and are kept apart here.
Experiments:
CDK6/D3 = CDK6/D3 (Homo sapiens, UniProt Q00534); experiment: Inhibitory activity on CDK6 kinase by Caliper Mobility Shift method; format: biochemical; conditions: CDK6/D3, 28° C. for 5 hours
Procedure: (§1) Experimental method: Inhibitory activity on CDK4/6 kinase was determined by Caliper Mobility Shift method
2) Preparation of 1-fold CDK6 kinase buffer solution
50 mL of 1000 mM HEPES stock solution (pH 7.5) and 50 μL of 30% Brij-35 stock solution were added to 949.95 mL of ultra pure water, and the resulting solution was mixed well.
(§2) 25 mL of 4% Coating Reagent #3 (provided with the 12-sipper chip used in Caliper device) stock solution, 50 mL of 1000 mM HEPES stock solution (pH 7.5), 50 mL of 0.5 M EDTA stock solution and 0.25 mL of 30% Brij-35 stock solution were added to 374.75 mL of ultra pure water, and the resulting solution was mixed well.
2) Preparation of 2.5-fold CDK6/D3 kinase solution 18 μL of CDK6/D3 enzyme solution and 14 μL of 1M DTT stock solution were added to 2768 μL of 1-fold CDK6 kinase buffer solution, and the resulting solution was mixed well.
2) Preparation of 2.5-fold CDK6/D3 polypeptide solution
23 μL of 100 mM ATP stock solution, 75 μL of 1M MgCl2 stock solution and 75 μL of FAM-labelled polypeptide 8 were added to 2827 μL of 1-fold CDK6 kinase buffer solution, and the resulting solution was mixed well.
(§3) A 10 mM solution of the test compound in DMSO was diluted with DMSO to obtain a solution with a concentration of 50 μM, which was used as the stock solution. Said stock solution was subjected to 4-fold gradient dilution with DMSO to obtain solutions with a concentration of […], 3.12 μM, 0.78 μM, 0.19 μM, 0.048 μM, 12.2 nM, 3 nM, 0.76 nM and 0.19 nM, respectively. Each of the resulting solution was 10-fold diluted with 1-fold kinase buffer solution to obtain a 5-fold compound solution.
(§4) 1) 5 μL of the prepared 5-fold test compound solution and 10 μL of the prepared 2.5-fold kinase solution were added to the corresponding wells in a 384-well plate, and the plate was incubated at room temperature for 10 minutes.
(§5) 2) 10 μL of the prepared 2.5-fold polypeptide solution was added to the corresponding wells to start the enzymatic reaction, and the plate was incubated at 28° C. for 5 hours.
(§6) 25 μL of stop solution was added to each corresponding well to stop the reaction.
(§7) 8. The data was read by the Caliper device, the inhibition rate was calculated by the following formula, and curve fitting was carried out by GraphPad5.0 software to obtain the IC50 value.

CDK4/D3 = CDK4/D3 (Homo sapiens, UniProt P11802); experiment: Inhibitory activity on CDK4 kinase by Caliper Mobility Shift method; format: biochemical; conditions: CDK4/D3, 28° C. for 5 hours
Procedure: Determination of Inhibitory Effect on CDK4/Cyclin D1
The determination of IC50 of CDK4/Cyclin D1 was conducted according to the following process. A 96-well filter plate (Millipore MADVN6550) was used. The total volume was 0.1 ml, containing buffer solution A (20 mM TRIS (tris[hydroxymethyl]aminomethane) (pH7.4), 50 mM NaCl, 1 mM dithiothreitol, 10 mM MgCl2), 2 μM ATP (containing […][32P]ATP), 20 ng CDK4, […] retinoblastoma protein and the test compound diluted in buffer solution A in an appropriate ratio. Buffer solution A alone without the test compound was used as the control without inhibitory effect. Buffer solution A containing excess EDTA was used to determine the background 32P level in the absence of enzymatic activity. All components except ATP were added to the wells, and the plate was shaked on a plate mixer for 2 minutes. [32P]ATP was added to initiate the reaction, and the plate was incubated at 25° C. for 15 minutes. 0.1 ml of 20% trichloroacetic acid (TCA) was added to stop the reaction. The plate was kept at 4° C. for at least 1 hour to allow the substrate to precipitate. The wells were washed five times with 0.2 ml of 10% TCA, and the binding of 32P was measured using a R plate counter (wallac Inc., Gaithersburg, Md.). IC50 of the test compound was determined by median effect method (Chou, T-C and Talalay P. Applications of the median effect principle for the assessment of low-dose risk of carcinogens and for the quantitation of synergism and antagonism of chemotherapeutic agents. In New Avenues in Developmental Cancer Chemotherapy (Eds. Harrap, K. T. and Connors, T. A.), pp. 37-64. Academic Press, New York, 1987).
as §1
1) Preparation of 1-fold CDK4 kinase buffer solution
800 μL of 1000 mM HEPES stock solution (pH 7.5) and 40 μL of 10% Triton X-100 stock solution were added to 39160 μL of ultra pure water, and the resulting solution was mixed well.
as §2
1) Preparation of 2.5-fold CDK4/D3 kinase solution
7 μL of CDK4/D3 enzyme solution and 9 μL of 1M DTT stock solution were added to 1784 μL of 1-fold CDK4 kinase buffer solution, and the resulting solution was mixed well.
1) Preparation of 2.5-fold CDK4/D3 polypeptide solution
10 µL of 100 mM ATP stock solution, 45 μL of 1M MgCl2 stock solution and 45 μL of FAM-labelled polypeptide 8 were added to 1700 μL of 1-fold CDK4 kinase buffer solution, and the resulting solution was mixed well.
as §3, §4, §5, §6, §7

MCF-7 cells = experiment: In vitro cell proliferation assay by BrdU method; format: cell-based; conditions: Homo sapiens, MCF7, 72 hours, 10% FBS
Procedure: In Vitro Cell Inhibitory Activity of the Compound of the Present Invention
Experimental method: Cell proliferation assay was carried out by BrdU method (BrdU cell proliferation assay kit, Cell Signaling Technology Co.)
Preparation of gradient dilution solution of test compound: the 10 mM stock solution of test compound was subjected to 4-fold serial gradient dilution with DMSO to obtain solutions with a concentration of 2.5 mM, […], respectively. 2 μL of DMSO-diluted compound was added to 198 μL of culture medium containing 10% FBS to obtain 10-fold test compound, wherein the maximum concentration of the test compound was 10 μM, the DMSO concentration was 1%, with a total of 7 concentration gradients.
MCF-7 culture medium: DMEM+10% FBS+0.01 mg/mL insulin
(1) Cells grown to 80% (in exponential growth phase) were digested with pancreatin, and were collected by centrifugation. MDA-MB-435S cells and U87MG cells were re-suspended in a FBS-free culture medium, counted and inoculated to a 96-well plate; MDA-MB-435S cells were inoculated at 3000 cells/well/81 μL, and U87MG cells were inoculated at 4000 cells/well/81 μL. MCF-7 cells were resuspended in a culture medium containing 1% FBS, counted and inoculated to a 96-well plate at 4000 cell/well/82 μL. The cells were incubated in a cell incubator at 37° C.
(2) After 24 hours of incubation, FBS (9 μL) was added to each well of the MDA-MB-435S cells and U87MG cells, and 8 μL of FBS was added to each well of the MCF-7 cells, so as to obtain a final FBS concentration of 10%.
(3) A different concentration of 10-fold test compound (10 μL) was added to each well to obtain a final concentration of test compound of 10 μM, 2.5 μM, 625 nM, 156 nM, 39 nM, 9.8 nM or 2.5 nM, respectively, with 3 repeated wells/group, and the cells were incubated at 37° C. for 72 hours.
(4) 10-fold BrdU solution (10 μL) was added to each well, and the cells were incubated in the incubator for 4 hours, followed by discarding the culture medium.
(5) Fixing/denaturation solution (10 μL) was added to each well, and the cells were incubated at room temperature for 30 minutes, followed by discarding the solution.
(6) 1-fold detection antibody solution (100 μL) was added to each well, the cells were incubated at room temperature for 1 hour, followed by discarding the solution, and the cells were washed with 1-fold washing solution (200 μL/well) three times.
(7) 1-fold HRP-labelled secondary antibody solution (100 μL) was added to each well, the cells were incubated at room temperature for 30 minutes, followed by discarding the solution, and the cells were washed with 1-fold washing solution (200 μL/well) three times.
(8) TMB substrate solution (100 μL) was added to each well, and the cells were incubated at room temperature for 30 minutes.
(9) Stop solution (100 μL) was added to each well, and the OD value at 450 nm was measured by a microplate reader.
1) Cell survival rate (%)=(ODtest compound−ODblank control)/(ODnormal cell control−ODblank control)×100%,
2) The data was processed by GraphPad Prism 5 software to obtain the curve and IC50 values.

[1] = amide bond, HATU, dichloromethane, 25.0 °C, 16.0 h
neointima formation = conditions: rats; cited from earlier work

Sequence of CDK6/D3 (Q00534 whole entry, species assumed): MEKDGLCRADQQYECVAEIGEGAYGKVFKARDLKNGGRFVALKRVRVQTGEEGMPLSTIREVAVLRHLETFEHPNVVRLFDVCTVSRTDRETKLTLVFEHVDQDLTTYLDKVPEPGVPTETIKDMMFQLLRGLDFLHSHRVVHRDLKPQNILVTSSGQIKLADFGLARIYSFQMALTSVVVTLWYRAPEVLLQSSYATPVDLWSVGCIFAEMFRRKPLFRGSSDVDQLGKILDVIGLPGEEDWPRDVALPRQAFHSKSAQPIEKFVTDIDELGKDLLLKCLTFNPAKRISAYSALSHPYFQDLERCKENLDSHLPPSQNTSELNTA
Sequence of CDK6/D3 (P30281 whole entry partner, species assumed): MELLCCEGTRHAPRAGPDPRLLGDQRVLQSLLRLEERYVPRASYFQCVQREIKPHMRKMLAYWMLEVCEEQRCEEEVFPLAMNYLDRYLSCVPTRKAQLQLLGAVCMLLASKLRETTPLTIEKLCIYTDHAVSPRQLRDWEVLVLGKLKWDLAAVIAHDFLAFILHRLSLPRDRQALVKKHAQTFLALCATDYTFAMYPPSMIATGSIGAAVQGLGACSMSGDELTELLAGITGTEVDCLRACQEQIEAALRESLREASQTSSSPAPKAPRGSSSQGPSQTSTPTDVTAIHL
Sequence of CDK4/D3 (P11802 whole entry, species assumed): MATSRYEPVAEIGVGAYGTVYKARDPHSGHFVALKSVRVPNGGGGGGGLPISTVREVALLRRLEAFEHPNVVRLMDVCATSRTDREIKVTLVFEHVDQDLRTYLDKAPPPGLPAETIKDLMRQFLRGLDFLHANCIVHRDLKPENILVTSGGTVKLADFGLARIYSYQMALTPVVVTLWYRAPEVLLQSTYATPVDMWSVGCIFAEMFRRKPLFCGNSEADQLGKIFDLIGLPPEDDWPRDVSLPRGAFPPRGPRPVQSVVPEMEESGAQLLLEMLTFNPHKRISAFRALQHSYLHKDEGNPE
Sequence of CDK4/D3 (P30281 whole entry partner, species assumed): as the sequence (P30281 whole entry partner, species assumed) above

| SMILES | IC50 (CDK6/D3) | IC50 (CDK4/D3) | IC50 (MCF-7 cells) | also measured |
| --- | --- | --- | --- | --- |
| CCN1CCN(Cc2cnc3cc2NC(=O)CC(C)(C)n2c(C)nc4c(F)cc(cc42)-c2nc(ncc2F)N3)CC1 [Example 8, 4^5-((4-Ethylpiperazin-1-yl)methyl)-1^4,2^5-difluoro-1^2,8,8-trimethyl-1^1H-3,5-diaza-1(6,1)-benzo[d]imidazola-2(4,2)-pyrimidina-4(2,4)-pyridinacyclooctaphan-6-one] | 10 nM | 8 nM |  |  |
| COc1ccc(CNc2nc(N(CCO)CCO)nc3c2ncn3C(C)C)cc1 [CVT-313] |  |  |  | inhibition of neointima formation (neointima formation): greater than 80% |
| CCN1CCN(Cc2cnc3cc2NC(=O)CC(C)n2ccc4ccc(cc42)-c2nc(ncc2F)N3)CC1 (stereo not shown) [Example 7, 4^5-((4-Ethylpiperazin-1-yl)methyl)-2^5-fluoro-8-methyl-1^1H-3,5-diaza-1(6,1)-indola-2(4,2)-pyrimidina-4(2,4)-pyridinacyclo-octaphan-6-one] | 2.5 nM | 1.5 nM |  | ring closure, yield of all isomers ([1]; from CCN1CCN(Cc2cnc(Nc3ncc(F)c(-c4ccc5ccn(C(C)CC(=O)O)c5c4)n3)cc2N)CC1, 14.0 mM): 33.3% |
| CCN1CCN(Cc2cnc3cc2NCCC(C)n2c(C)nc4c(F)cc(cc42)-c2nc(ncc2F)N3)CC1 (stereo not shown) [Example 5, 4^5-((4-Ethylpiperazin-1-yl)methyl)-1^4,2^5-difluoro-1^2,8-dimethyl-1^1H-3,5-diaza-1(6,1)-benzo[d]imidazola-2(4,2)-pyrimidina-4(2,4)-pyridinacyclooctaphane] | 14 nM | 21 nM |  |  |

Further lines, with some results ahead:

| IC50 (CDK6/D3) | IC50 (CDK4/D3) | IC50 (MCF-7 cells) | SMILES | also measured |
| --- | --- | --- | --- | --- |
| 27 nM | 15 nM | 4120 nM | CCN1CCN(Cc2cnc3cc2NC(=O)C[C@H](C)n2c(C)nc4c(F)cc(cc42)-c2nc(ncc2F)N3)CC1 [Example 3, (S)-4^5-((4-Ethylpiperazin-1-yl)methyl)-1^4,2^5-difluoro-1^2,8-dimethyl-1^1H-3,5-diaza-1(6,1)-benzo[d]imidazola-2(4,2)-pyrimidina-4(2,4)-pyridinacyclooctaphan-6-one] |  |
| 0.48 nM | 0.7 nM | 142 nM | CCN1CCN(Cc2cnc3cc2NC(=O)CC(C)n2c(C)nc4c(F)cc(cc42)-c2nc(ncc2F)N3)CC1 (stereo not shown) [Example 1, 4^5-((4-Ethylpiperazin-1-yl)methyl)-1^4,2^5-difluoro-1^2,8-dimethyl-1^1H-3,5-diaza-1(6,1)-benzo[d]imidazola-2(4,2)-pyrimidina-4(2,4)-pyridinacyclooctaphan-6-one] | ring closure, yield of all isomers ([1]; from CCN1CCN(Cc2cnc(Nc3ncc(F)c(-c4cc(F)c5nc(C)n(C(C)CC(=O)O)c5c4)n3)cc2N)CC1, 14.0 mM): 8.3% |
| 12 nM | 5 nM |  | CCN1CCN(Cc2cnc3cc2NC(=O)CC2(CC2)n2c(C)nc4c(F)cc(cc42)-c2nc(ncc2F)N3)CC1 [Example 9, 5′-((4-Ethylpiperazin-1-yl)methyl)-4′,5′-difluoro-2′-methylspiro[cyclopropane-1,8′-3,5-diaza-1(6,1)-benzo[d]imidazola-2(4,2)-pyrimidina-4(2,4)-pyridinacyclooctaphan]-6′-one] |  |
| 1.13 nM | 0.78 nM | 132 nM | CCN1CCN(Cc2cnc3cc2NC(=O)CCn2c(C)nc4c(F)cc(cc42)-c2nc(ncc2F)N3)CC1 [Example 4, 4^5-((4-Ethylpiperazin-1-yl)methyl)-1^4,2^5-difluoro-1^2-methyl-1^1H-3,5-diaza-1(6,1)-benzo[d]imidazola-2(4,2)-pyrimidina-4(2,4)-pyridinacyclooctaphan-6-one] | ring closure, yield of all isomers ([1]; from CCN1CCN(Cc2cnc(Nc3ncc(F)c(-c4cc(F)c5nc(C)n(CCC(=O)O)c5c4)n3)cc2N)CC1, 18.0 mM): 7.3% |
| 0.35 nM | 0.49 nM | 42 nM | CCN1CCN(Cc2cnc3cc2NC(=O)C[C@@H](C)n2c(C)nc4c(F)cc(cc42)-c2nc(ncc2F)N3)CC1 [Example 2, (R)-4^5-((4-Ethylpiperazin-1-yl)methyl)-1^4,2^5-difluoro-1^2,8-dimethyl-1^1H-3,5-diaza-1(6,1)-benzo[d]imidazola-2(4,2)-pyrimidina-4(2,4)-pyridinacyclooctaphan-6-one] | ring closure, yield of all isomers ([1]; from CCN1CCN(Cc2cnc(Nc3ncc(F)c(-c4cc(F)c5nc(C)n([C@H](C)CC(=O)O)c5c4)n3)cc2N)CC1, 13.8 mM): 7.4% |
